Data from patent US10004701B2, “Methods and compositions for treating infection” (UNIVERSITY OF ROCHESTER, priority 2012, dated 2018).
Where a name gives a salt, the structure may show the parent alone. Read-outs that look alike come from different tables or passages of the source.

How the values were obtained:
Assay in all cases: AK assay 384-well format, Prestwick library screening
[1] = tested on: A. baumannii strain 98-37-09; format: cell-based, Acinetobacter baumannii; conditions: 50 μM final drug concentration; for fold induction at 50 µM: Acinetobacter baumannii, 983709, 3 h; for AK-based Prestwick Library Screening Results: A. baumannii (increase in extracellular AK activity): 384-well
[2] = tested on: S. aureus strain USA300-0114; format: cell-based, Staphylococcus aureus; conditions: 50 μM final drug concentration; for fold induction at 50 µM: Staphylococcus aureus, USA300, 3 h; for AK-based Prestwick Library Screening Results: S. aureus (increase in extracellular AK activity): 384-well
K. pneumoniae = format: cell-based, Klebsiella pneumoniae; conditions: 50 μM final drug concentration; for fold induction at 50 µM: Klebsiella pneumoniae, 3 h; for AK-based Prestwick Library Screening Results: K. pneumoniae (increase in extracellular AK activity): 384-well
E. coli = format: cell-based, Escherichia coli; conditions: 50 μM final drug concentration; for fold induction at 50 µM: Escherichia coli, 3 h; for AK-based Prestwick Library Screening Results: E. coli (increase in extracellular AK activity): 384-well
E. cloacae = format: cell-based, Enterobacter cloacae; conditions: 50 μM final drug concentration; for fold induction at 50 µM: Enterobacter cloacae, 3 h; for AK-based Prestwick Library Screening Results: E. cloacae (increase in extracellular AK activity): 384-well
P. aeruginosa = format: cell-based, Pseudomonas aeruginosa; conditions: 50 μM final drug concentration; for fold induction at 50 µM: Pseudomonas aeruginosa, 3 h; for AK-based Prestwick Library Screening Results: P. aeruginosa (increase in extracellular AK activity): 384-well
E. faecium = format: cell-based, Enterococcus faecium; conditions: 50 μM final drug concentration; for fold induction at 50 µM: Enterococcus faecium, 3 h; for AK-based Prestwick Library Screening Results: E. faecium (increase in extracellular AK activity): 384-well
[3] = cutoff for positive-scoring molecules 3-fold increase, read-out: AK-based Prestwick Library Screening Results, A. baumannii (fold increase in extracellular AK activity)
[4] = cutoff for positive-scoring molecules 3-fold increase, read-out: AK-based Prestwick Library Screening Results, S. aureus (fold increase in extracellular AK activity)
[5] = cutoff for positive-scoring molecules 3-fold increase, read-out: AK-based Prestwick Library Screening Results, K. pneumoniae (fold increase in extracellular AK activity)
[6] = cutoff for positive-scoring molecules 3-fold increase, read-out: AK-based Prestwick Library Screening Results, E. coli (fold increase in extracellular AK activity)
[7] = cutoff for positive-scoring molecules 3-fold increase, read-out: AK-based Prestwick Library Screening Results, E. cloacae (fold increase in extracellular AK activity)
[8] = cutoff for positive-scoring molecules 3-fold increase, read-out: AK-based Prestwick Library Screening Results, P. aeruginosa (fold increase in extracellular AK activity)
[9] = cutoff for positive-scoring molecules 3-fold increase, read-out: AK-based Prestwick Library Screening Results, E. faecium (fold increase in extracellular AK activity)
[10] = planktonic A. baumannii, […], read-out: AK-based Prestwick library screening result, A. baumannii (fold increase in extracellular AK activity)
[11] = planktonic S. aureus, […], read-out: AK-based Prestwick library screening result, S. aureus (fold increase in extracellular AK activity)
[12] = planktonic K. pneumoniae, […], read-out: AK-based Prestwick library screening result, K. pneumoniae (fold increase in extracellular AK activity)
[13] = planktonic E. coli, […], read-out: AK-based Prestwick library screening result, E. coli (fold increase in extracellular AK activity)
[14] = planktonic E. cloacae, […], read-out: AK-based Prestwick library screening result, E. cloacae (fold increase in extracellular AK activity)
[15] = planktonic P. aeruginosa, […], read-out: AK-based Prestwick library screening result, P. aeruginosa (fold increase in extracellular AK activity)
[16] = planktonic E. faecium, […], read-out: AK-based Prestwick library screening result, E. faecium (fold increase in extracellular AK activity)

`CC(=O)OCC(=O)NCCCOc1cccc(CN2CCCCC2)c1` [Roxatidine Acetate HCl] was tested, and the fold induction at 50 µM ([1]; planktonic A. baumannii, cutoff for positive-scoring molecules 3-fold increase, read-out: AK-based Prestwick Library Screening Results, A. baumannii (increase in extracellular AK activity)) was 0.8, the fold induction at 50 µM ([2]; planktonic S. aureus, cutoff for positive-scoring molecules 3-fold increase, read-out: AK-based Prestwick Library Screening Results, S. aureus (increase in extracellular AK activity)) was 0.6 and the fold induction at 50 µM (K. pneumoniae; planktonic K. pneumoniae, cutoff for positive-scoring molecules 3-fold increase, read-out: AK-based Prestwick Library Screening Results, K. pneumoniae (increase in extracellular AK activity)) was 0.7. The fold induction at 50 µM (E. coli; planktonic E. coli, cutoff for positive-scoring molecules 3-fold increase, read-out: AK-based Prestwick Library Screening Results, E. coli (increase in extracellular AK activity)) was 0.8, the fold induction at 50 µM (E. cloacae; planktonic E. cloacae, cutoff for positive-scoring molecules 3-fold increase, read-out: AK-based Prestwick Library Screening Results, E. cloacae (increase in extracellular AK activity)) was 0.9 and the fold induction at 50 µM (P. aeruginosa; planktonic P. aeruginosa, cutoff for positive-scoring molecules 3-fold increase, read-out: AK-based Prestwick Library Screening Results, P. aeruginosa (increase in extracellular AK activity)) was 0.7. The fold induction at 50 µM (E. faecium; planktonic E. faecium, cutoff for positive-scoring molecules 3-fold increase, read-out: AK-based Prestwick Library Screening Results, E. faecium (increase in extracellular AK activity)) was 1.
`CC[C@H]1OC(=O)[C@H](C)[C@@H](O[C@H]2C[C@@](C)(OC)[C@@H](O)[C@H](C)O2)[C@H](C)[C@@H](O[C@@H]2O[C@H](C)C[C@H](N(C)C)[C@H]2O)[C@](C)(O)C[C@@H](C)/C(=N\OCOCCOC)[C@H](C)[C@@H](O)[C@]1(C)O` [Roxithromycin] showed a fold induction at 50 µM [1, 3] of 1, a fold induction at 50 µM [2, 4] of 2.8 and a fold induction at 50 µM (K. pneumoniae; [5]) of 1.1. The fold induction at 50 µM (E. coli; [6]) was 0.9, the fold induction at 50 µM (E. cloacae; [7]) was 1.5 and the fold induction at 50 µM (P. aeruginosa; [8]) was 0.9. For the same molecule, the fold induction at 50 µM (E. faecium; [9]) was 1.4.
`c1ccc2c(c1)CCCc1cc(NCCN3CCOCC3)nnc1-2` [SR-95639A] was tested, and the “AK-based Prestwick Library Screening Results: A. baumannii (increase in extracellular AK activity)” value ([1]; planktonic A. baumannii, […]) was 0.5, the “AK-based Prestwick Library Screening Results: S. aureus (increase in extracellular AK activity)” value ([2]; planktonic S. aureus, […]) was 0.4 and the “AK-based Prestwick Library Screening Results: K. pneumoniae (increase in extracellular AK activity)” value (K. pneumoniae; planktonic K. pneumoniae, […]) was 0.5. For the same molecule, the “AK-based Prestwick Library Screening Results: E. coli (increase in extracellular AK activity)” value (E. coli; planktonic E. coli, […]) was 0.5, the “AK-based Prestwick Library Screening Results: E. cloacae (increase in extracellular AK activity)” value (E. cloacae; planktonic E. cloacae, […]) was 0.4 and the “AK-based Prestwick Library Screening Results: P. aeruginosa (increase in extracellular AK activity)” value (P. aeruginosa; planktonic P. aeruginosa, […]) was 0.4. The “AK-based Prestwick Library Screening Results: E. faecium (increase in extracellular AK activity)” value (E. faecium; planktonic E. faecium, […]) was 0.8.
`CC(C)(C)NCC(O)c1ccc(O)c(CO)c1` (stereo not drawn) [Salbutamol] was tested, and the fold induction at 50 µM ([1]; 384-well format, cutoff for positive-scoring molecules 3-fold increase, read-out: AK-based Prestwick Library Screening Results, A. baumannii (increase in extracellular AK activity)) was 0.9, the fold induction at 50 µM ([2]; 384-well format, cutoff for positive-scoring molecules 3-fold increase, read-out: AK-based Prestwick Library Screening Results, S. aureus (increase in extracellular AK activity)) was 0.8 and the fold induction at 50 µM (K. pneumoniae; 384-well format, cutoff for positive-scoring molecules 3-fold increase, read-out: AK-based Prestwick Library Screening Results, K. pneumoniae (increase in extracellular AK activity)) was 0.7. For the same molecule, the fold induction at 50 µM (E. coli; 384-well format, cutoff for positive-scoring molecules 3-fold increase, read-out: AK-based Prestwick Library Screening Results, E. coli (increase in extracellular AK activity)) was 0.9, the fold induction at 50 µM (E. cloacae; 384-well format, cutoff for positive-scoring molecules 3-fold increase, read-out: AK-based Prestwick Library Screening Results, E. cloacae (increase in extracellular AK activity)) was 1.4 and the fold induction at 50 µM (P. aeruginosa; 384-well format, cutoff for positive-scoring molecules 3-fold increase, read-out: AK-based Prestwick Library Screening Results, P. aeruginosa (increase in extracellular AK activity)) was 0.8. The fold induction at 50 µM (E. faecium; 384-well format, cutoff for positive-scoring molecules 3-fold increase, read-out: AK-based Prestwick Library Screening Results, E. faecium (increase in extracellular AK activity)) was 1.
`OCc1cc(C(O)CNCCCCCCOCCCCc2ccccc2)ccc1O` (stereo not drawn) [Salmeterol] gave a fold induction at 50 µM [1, 3] of 1.5, a fold induction at 50 µM [2, 4] of 1.9 and a fold induction at 50 µM (K. pneumoniae; [5]) of 1.1. The fold induction at 50 µM (E. coli; [6]) was 1.4, the fold induction at 50 µM (E. cloacae; [7]) was 1.5 and the fold induction at 50 µM (P. aeruginosa; [8]) was 1.2. For the same molecule, the fold induction at 50 µM (E. faecium; [9]) was 1.
Molecule `C[C@@H]1NCCc2cc(O)c(O)cc21` [Salsolinol hydrobromide] has a fold induction at 50 µM ([1]; planktonic, cutoff for positive 3-fold increase, read-out: AK-based Prestwick Library Screening Results, A. baumannii (fold increase in extracellular AK activity)) of 1.2, a fold induction at 50 µM ([2]; planktonic, cutoff for positive 3-fold increase, read-out: AK-based Prestwick Library Screening Results, S. aureus (fold increase in extracellular AK activity)) of 1.1 and a fold induction at 50 µM (K. pneumoniae; planktonic, cutoff for positive 3-fold increase, read-out: AK-based Prestwick Library Screening Results, K. pneumoniae (fold increase in extracellular AK activity)) of 1.2. It also gave a fold induction at 50 µM (E. coli; planktonic, cutoff for positive 3-fold increase, read-out: AK-based Prestwick Library Screening Results, E. coli (fold increase in extracellular AK activity)) of 1.2, a fold induction at 50 µM (E. cloacae; planktonic, cutoff for positive 3-fold increase, read-out: AK-based Prestwick Library Screening Results, E. cloacae (fold increase in extracellular AK activity)) of 1.5 and a fold induction at 50 µM (P. aeruginosa; planktonic, cutoff for positive 3-fold increase, read-out: AK-based Prestwick Library Screening Results, P. aeruginosa (fold increase in extracellular AK activity)) of 1.1. It also gave a fold induction at 50 µM (E. faecium; planktonic, cutoff for positive 3-fold increase, read-out: AK-based Prestwick Library Screening Results, E. faecium (fold increase in extracellular AK activity)) of 1.
Work on `C[n+]1cc2c3c(ccc2c2ccc4cc5c(cc4c21)OCO5)OCO3` [Sanguinarine] yielded a fold induction at 50 µM [1, 10] of 0.7, a fold induction at 50 µM [2, 11] of 0.1 and a fold induction at 50 µM (K. pneumoniae; [12]) of 0.2. It also gave a fold induction at 50 µM (E. coli; [13]) of 0.6, a fold induction at 50 µM (E. cloacae; [14]) of 0.9 and a fold induction at 50 µM (P. aeruginosa; [15]) of 0.3. It also gave a fold induction at 50 µM (E. faecium; [16]) of 0.3.
In the case of `CC(C)(C)NC(=O)[C@@H]1C[C@@H]2CCCC[C@@H]2CN1C[C@@H](O)[C@H](Cc1ccccc1)NC(=O)[C@H](CC(N)=O)NC(=O)c1ccc2ccccc2n1` [Saquinavir mesylate], the fold induction at 50 µM [1, 10] is reported as 1.5, the fold induction at 50 µM [2, 11] is reported as 0.9 and the fold induction at 50 µM (K. pneumoniae; [12]) is reported as 1.1. It also gave a fold induction at 50 µM (E. coli; [13]) of 1.3, a fold induction at 50 µM (E. cloacae; [14]) of 1.8 and a fold induction at 50 µM (P. aeruginosa; [15]) of 1. For the same molecule, the fold induction at 50 µM (E. faecium; [16]) was 1.2.
`Br.C[N+]1([O-])[C@@H]2CC(OC(=O)[C@H](CO)c3ccccc3)C[C@H]1[C@@H]1O[C@@H]12` (stereo partly drawn) [Scopolamin-N-oxide hydrobromide] was tested, and the “AK-based Prestwick Library Screening Results: A. baumannii (increase in extracellular AK activity)” value ([1]; planktonic A. baumannii, […]) was 1.4, the “AK-based Prestwick Library Screening Results: S. aureus (increase in extracellular AK activity)” value ([2]; planktonic S. aureus, […]) was 1.4 and the “AK-based Prestwick Library Screening Results: K. pneumoniae (increase in extracellular AK activity)” value (K. pneumoniae; planktonic K. pneumoniae, […]) was 1.2. The “AK-based Prestwick Library Screening Results: E. coli (increase in extracellular AK activity)” value (E. coli; planktonic E. coli, […]) was 1.2, the “AK-based Prestwick Library Screening Results: E. cloacae (increase in extracellular AK activity)” value (E. cloacae; planktonic E. cloacae, […]) was 1.5 and the “AK-based Prestwick Library Screening Results: P. aeruginosa (increase in extracellular AK activity)” value (P. aeruginosa; planktonic P. aeruginosa, […]) was 1.3. For the same molecule, the “AK-based Prestwick Library Screening Results: E. faecium (increase in extracellular AK activity)” value (E. faecium; planktonic E. faecium, […]) was 1.1.
